Test [1] deals with T1, B1R receptor of the rat (bradykinin 1 receptor) (Rattus norvegicus, UniProt P97583).
T1 construct: host or cells: CHO K1 cells (rB1R cells)
T1 sequence (P97583 1-337): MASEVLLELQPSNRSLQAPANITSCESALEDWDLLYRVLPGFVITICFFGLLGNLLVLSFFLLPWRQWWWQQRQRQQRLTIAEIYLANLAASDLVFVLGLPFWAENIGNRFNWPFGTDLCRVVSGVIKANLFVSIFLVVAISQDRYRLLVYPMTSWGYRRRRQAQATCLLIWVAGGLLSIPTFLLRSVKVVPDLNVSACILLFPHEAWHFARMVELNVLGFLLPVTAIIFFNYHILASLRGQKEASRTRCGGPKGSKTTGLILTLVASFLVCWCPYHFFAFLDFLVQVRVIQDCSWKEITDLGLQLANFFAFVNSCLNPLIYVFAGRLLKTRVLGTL
As to the kind of experiment: FLIPR Ca2+ assay (Fluo-4) on CHO K1 cells stably transfected with the B1R gene of the rat; % activation and % inhibition at 10 μM. The class given is cell-based. Particulars: CHO-K1, test substance 10 μM; CHO K1 rB1R cells; Ca2+ inflow after 100 nM Des-Arg9-bradykinin; read-out: B1R antagonism, rat [10 μM] % inhibition. Summed up: (§1)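 Fluo-4 Ca2+ flux on FLIPR in stable hB1R or rB1R CHO K1 lines, two additions. Agonism: 10 µM compound versus 0.5 nM Lys-Des-Arg9-BK (human) or 100 nM Des-Arg9-BK (rat); antagonism: same agonists applied 10 min later, suppression expressed against maximum achievable inhibition.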

Test [2] concerns the target T2, human B1R receptor (bradykinin 1 receptor) (Homo sapiens, UniProt P46663).
T2 construct: host or cells: CHO K1 cells (hB1R cells)
T2 sequence (P46663 1-353): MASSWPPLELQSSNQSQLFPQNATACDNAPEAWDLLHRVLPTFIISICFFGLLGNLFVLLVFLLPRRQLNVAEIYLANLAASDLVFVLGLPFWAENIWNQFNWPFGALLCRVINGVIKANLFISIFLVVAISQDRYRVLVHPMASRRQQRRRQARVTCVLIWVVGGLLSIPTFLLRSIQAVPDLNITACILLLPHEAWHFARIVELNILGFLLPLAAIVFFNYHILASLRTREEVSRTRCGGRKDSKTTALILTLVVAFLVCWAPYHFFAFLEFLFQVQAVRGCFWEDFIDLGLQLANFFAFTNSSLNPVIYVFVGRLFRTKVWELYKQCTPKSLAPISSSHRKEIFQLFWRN
As to the kind of experiment: FLIPR Ca2+ assay (Fluo-4) on CHO K1 cells stably transfected with the human B1R gene; % activation and % inhibition at 10 μM. The note with it: CHO-K1, test substance 10 μM; CHO K1 hB1R cells; Ca2+ inflow after 0.5 nM Lys-Des-Arg9-bradykinin; read-out: B1R antagonism, human [10 μM] % inhibition. The class given is cell-based. The essentials: as §1

Structures are written as SMILES.

In general, inhibition refers to the change of the read-out against control, counted positive when it falls. As for `COc1cc(C)c(S(=O)(=O)N(CCOCC(=O)N2CCC(O)(c3ccc(Cl)c(C(F)(F)F)c3)CC2)CC2CC2)c(C)c1C` [Example 237, N-(2-(2-(4-(4-chloro-3-(trifluoromethyl)phenyl)-4-hydroxypiperidin-1-yl)-2-oxoethoxy)ethyl)-N-(cyclopropylmethyl)-4-methoxy-2,3,6-trimethylphenyl-sulfonamide], the figures for the inhibition at 10 µM in test [1] and in test [2] were 100% and 103%, respectively.
For `COc1cc(C)c(S(=O)(=O)N(CCOCC(=O)N2CCC(O)(c3ccc(Cl)c(C(F)(F)F)c3)CC2)CC(C)C)c(C)c1C` [Example 238, N-(2-(2-(4-(4-chloro-3-(trifluoromethyl)phenyl)-4-hydroxypiperidin-1-yl)-2-oxoethoxy)ethyl)-N-isobutyl-4-methoxy-2,3,6-trimethylphenylsulfonamide], the values for the inhibition at 10 µM in test [1] and in test [2] were 97.4% and 57.3%, respectively.
`COc1cc(C)c(S(=O)(=O)N2CCCC2COCC(=O)N2CCC(O)(c3cccs3)CC2)c(C)c1` (stereo not drawn) [Example 239, 1-(4-hydroxy-4-(thiophen-2-yl)piperidin-1-yl)-2-((1-(4-methoxy-2,6-dimethylphenylsulfonyl)pyrrolidin-2-yl)methoxy)ethanone]: the results for the inhibition at 10 µM in test [1] and in test [2] were 98.9% and 105%, respectively.
For `COc1cc(C)c(S(=O)(=O)N(CCOCC(=O)N2CCC(O)(c3cccnc3)CC2)CC2CC2)c(C)c1C` [Example 240, N-(cyclopropylmethyl)-N-(2-(2-(4-hydroxy-4-(pyridin-3-yl)piperidin-1-yl)-2-oxoethoxy)ethyl)-4-methoxy-2,3,6-trimethylphenylsulfonamide], in that order: 99.4% and 103%.
As to `COc1cc(C)c(S(=O)(=O)N(CCOCC(=O)N2CCC(O)(c3cccnc3)CC2)CC(C)C)c(C)c1C` [Example 241, N-(2-(2-(4-hydroxy-4-(pyridin-3-yl)piperidin-1-yl)-2-oxoethoxy)ethyl)-N-isobutyl-4-methoxy-2,3,6-trimethylphenylsulfonamide], the inhibition at 10 µM in test [1] was found to be 101%; in test [2] it was 103%.
Consider `COc1cc(C)c(S(=O)(=O)N2CCCCC2COCC(=O)N2CCC(O)(c3ccc(Cl)cc3)CC2)c(C)c1` (stereo not drawn) [Example 242, 1-(4-(4-chlorophenyl)-4-hydroxypiperidin-1-yl)-2-((1-(4-methoxy-2,6-dimethylphenylsulfonyl)piperidin-2-yl)methoxy)ethanone], for which the inhibition at 10 µM in test [1] amounted to 98.4%; in test [2], 101%.
For the compound `COc1cc(C)c(S(=O)(=O)N2CCCCC2COCC(=O)N2CCC(O)(c3ccc(Br)cc3)CC2)c(C)c1` (stereo not drawn) [Example 243, 1-(4-(4-bromophenyl)-4-hydroxypiperidin-1-yl)-2-((1-(4-methoxy-2,6-dimethylphenylsulfonyl)piperidin-2-yl)methoxy)ethanone], the inhibition at 10 µM in test [1] was 96.8%; in test [2], 104%.
For `COc1cc(C)c(S(=O)(=O)N2CCCCC2COCC(=O)N2CCC(O)(c3ccccc3)CC2)c(C)c1` (stereo not drawn) [Example 244, 1-(4-hydroxy-4-phenylpiperidin-1-yl)-2-((1-(4-methoxy-2,6-dimethylphenylsulfonyl)piperidin-2-yl)methoxy)ethanone], the inhibition at 10 µM in test [1] was 99.3%; in test [2], 105%.
As to `COc1cc(C)c(S(=O)(=O)N2CCCCC2COCC(=O)N2CCC(O)(Cc3ccccc3)CC2)c(C)c1` (stereo not drawn) [Example 245, 1-(4-benzyl-4-hydroxypiperidin-1-yl)-2-((1-(4-methoxy-2,6-dimethylphenylsulfonyl)piperidin-2-yl)methoxy)ethanone], the figures for the inhibition at 10 µM in test [1] and in test [2] were 97.7% and 99.8%, respectively.
In the case of `COc1cc(C)c(S(=O)(=O)N2CCCCC2COCC(=O)N2CCC(O)(c3ccc(Cl)c(C(F)(F)F)c3)CC2)c(C)c1` (stereo not drawn) [Example 246, 1-(4-(4-chloro-3-(trifluoromethyl)phenyl)-4-hydroxypiperidin-1-yl)-2-((1-(4-methoxy-2,6-dimethylphenylsulfonyl)piperidin-2-yl)methoxy)ethanone], the results for the inhibition at 10 µM in test [1] and in test [2] were 99% and 103%, respectively.
Consider `O=C(COCC1CCN(S(=O)(=O)c2c(Cl)cc(Cl)cc2Cl)C1)N1CCC(O)(Cc2ccccc2)CC1` (stereo not drawn) [Example 248, 1-(4-benzyl-4-hydroxypiperidin-1-yl)-2-((1-(2,4,6-trichlorophenylsulfonyl)pyrrolidin-3-yl)methoxy)ethanone], for which the inhibition at 10 µM came out at 85.1% in test [1] and 40% in test [2].
For the compound `O=C(COC1CCCN(S(=O)(=O)c2c(Cl)cc(Cl)cc2Cl)C1)N1CCC(O)(Cc2ccccc2)CC1` (stereo not drawn) [Example 249, 1-(4-benzyl-4-hydroxypiperidin-1-yl)-2-(1-(2,4,6-trichlorophenylsulfonyl)piperidin-3-yloxy)ethanone], the inhibition at 10 µM in test [1] came out at 87.3%; in test [2], 70.8%.
Consider `O=C(COC1CCCN(S(=O)(=O)c2c(Cl)cc(Cl)cc2Cl)C1)N1CCC(O)(c2ccc(Cl)c(C(F)(F)F)c2)CC1` (stereo not drawn) [Example 250, 1-(4-(4-chloro-3-(trifluoromethyl)phenyl)-4-hydroxypiperidin-1-yl)-2-(1-(2,4,6-trichlorophenylsulfonyl)piperidin-3-yloxy)ethanone], for which the inhibition at 10 µM in test [1] came out at 76.3%; in test [2] it was 18%.
Regarding `COc1cc(C)c(S(=O)(=O)N2CCCC(COCC(=O)N3CCC(O)(c4ccc(Cl)cc4)CC3)C2)c(C)c1` (stereo not drawn) [Example 251, 1-(4-(4-chlorophenyl)-4-hydroxypiperidin-1-yl)-2-((1-(4-methoxy-2,6-dimethylphenylsulfonyl)piperidin-3-yl)methoxy)ethanone], the inhibition at 10 µM was 92.9% in test [1] and 47.8% in test [2].
Taken in the same sequence, the figures for `COc1cc(C)c(S(=O)(=O)N2CCCC(COCC(=O)N3CCC(O)(Cc4ccccc4)CC3)C2)c(C)c1` (stereo not drawn) [Example 252, 1-(4-benzyl-4-hydroxypiperidin-1-yl)-2-((1-(4-methoxy-2,6-dimethylphenylsulfonyl)piperidin-3-yl)methoxy)ethanone] were 100% and 32.7%.
Regarding `O=C(COCC1CCCN(S(=O)(=O)c2c(Cl)cc(Cl)cc2Cl)C1)N1CCC(O)(c2ccc(Cl)cc2)CC1` (stereo not drawn) [Example 254, 1-(4-(4-chlorophenyl)-4-hydroxypiperidin-1-yl)-2-((1-(2,4,6-trichlorophenylsulfonyl)piperidin-3-yl)methoxy)ethanone], the figures for the inhibition at 10 µM in test [1] and in test [2] were 36.8% and 62.5%, respectively.
As for `O=C(COCC1CCCN(S(=O)(=O)c2c(Cl)cc(Cl)cc2Cl)C1)N1CCC(O)(c2ccccc2)CC1` (stereo not drawn) [Example 255, 1-(4-hydroxy-4-phenylpiperidin-1-yl)-2-((1-(2,4,6-trichlorophenylsulfonyl)piperidin-3-yl)methoxy)ethanone], the inhibition at 10 µM in test [1] worked out at 73.7%; in test [2], 82.5%.
Take `Cc1cc(S(=O)(=O)N(C)CCOCC(=O)N2CCC(O)(c3ccc(Cl)cc3)CC2)c(C)s1` [Example 256, N-(2-(2-(4-(4-chlorophenyl)-4-hydroxypiperidin-1-yl)-2-oxoethoxy)ethyl)-N,2,5-trimethylthiophene-3-sulfonamide]: the inhibition at 10 µM was determined as 90.7% in test [1] and 56.3% in test [2].
As to `Cc1cc(S(=O)(=O)N(C)CCOCC(=O)N2CCC(O)(c3ccc(Br)cc3)CC2)c(C)s1` [Example 257, N-(2-(2-(4-(4-bromophenyl)-4-hydroxypiperidin-1-yl)-2-oxoethoxy)ethyl)-N,2,5-trimethylthiophene-3-sulfonamide], the figures for the inhibition at 10 µM in test [1] and in test [2] were 101% and 49.4%, respectively.
For `Cc1cc(S(=O)(=O)N(C)CCOCC(=O)N2CCC(O)(c3cccc(C(F)(F)F)c3)CC2)c(C)s1` [Example 258, N-(2-(2-(4-hydroxy-4-(3-(trifluoromethyl)phenyl)piperidin-1-yl)-2-oxoethoxy)ethyl)-N,2,5-trimethylthiophene-3-sulfonamide], the inhibition at 10 µM was determined as 96.1% in test [1] and 71.5% in test [2].
Consider `Cc1cc(S(=O)(=O)N(C)CCOCC(=O)N2CCC(O)(c3ccc(Cl)c(C(F)(F)F)c3)CC2)c(C)s1` [Example 259, N-(2-(2-(4-(4-chloro-3-(trifluoromethyl)phenyl)-4-hydroxypiperidin-1-yl)-2-oxoethoxy)ethyl)-N,2,5-trimethylthiophene-3-sulfonamide], for which the inhibition at 10 µM stood at 93.3% in test [1] and 94% in test [2].

For the origin of these results see US8580965B2, “Substituted sulfonamide compounds” (Gruenenthal GmbH, priority 2006, dated 2013).
